Measurements: patent US9301923B2, “Lipids, lipid compositions, and methods of using them” (NOVARTIS AG, priority 2009, dated 2016)

Experiments:
[1] = system: Factor VII; test: Factor VII activity assay, in vivo liver delivery of FVII siRNA LNP; design: species or system mouse; settings: ~48 h
Method: Female CD-1 mice are received from Charles River Labs and maintained on standard lab chow and water ad libitum. The animals weigh approximately 25 grams at time of dosing. Formulated siRNA is administered as a single dose at various dose levels intravenously via the lateral tail vein calculated on a (mg siRNAs/kg) basis according to individual animal weights (10 ml/kg injection volume).
Formulated siRNAs are made up of double stranded siRNA sequences specific to a target mRNA sequence, and are in the form of lipid nucleotid particles (LNPs) containing cationic lipids, stealth lipids and neutral lipids, as provided in the Examples below. The siRNA construct for use in targeting the liver is specific to Factor VII. […] FVII siRNA duplex sequence
Formulated Factor VII siRNA is administered as a single dose at various dose levels intravenously via the lateral tail vein calculated on a mg siRNAs/kg basis according to individual animal weights (10 ml/kg injection volume). Approximately 48 h after injection, the mice are euthanized by CO2 inhalation followed by exsanguinations through the vena cava. […] In some cases, small pieces (˜50 mg) of liver are collected and snap frozen in liquid nitrogen for follow up mRNA quantitation.
An assay standard curve is prepared using pooled plasma aliquots from the vehicle control animals.

[2] = pKa of the lipid by TNS fluorescence; type: physicochemical; settings: pKa
Method: Unless explicitly indicated otherwise, all pKas referred to herein are measured in water at standard temperature and pressure. Also, unless otherwise indicated, all references to pKa are references to pKa measured using the following technique.
2 mM solution of lipid in ethanol are prepared by weighing the lipid and then dissolving in ethanol.
This is done with all eight buffers.
Priority: Column priority • Carriage Speed: Normal • Auto read: Off
The normalized fluorescence intensity vs. pH chart is then plotted in the Microsoft Excel software. The eight points are connected with a smooth line.
The pKa determined using this method is precise to about 0.2 pKa units.

[3] = Particle size and PDI by dynamic light scattering (Malvern Zetasizer); type: physicochemical
Method: Unless indicated otherwise, all sizes referred to herein are the average sizes (diameters) of the fully formed nanoparticle, as measured by dynamic light scattering on a Malvern Zetasizer. The nanoparticle sample is diluted in phosphate buffered saline (PBS) so that the count rate is approximately 200-400 kcts. The data is presented as a weighted average of the intensity measure.
The acronym PDI stands for polydispersity index. Unless indicated otherwise, all PDIs referred to herein are the PDI of the fully formed nanoparticle, as measured by dynamic light scattering on a Malvern Zetasizer. The nanoparticle sample is diluted in phosphate buffered saline (PBS) so that the count rate is approximately 200-400 kcts.

[4] = dose 3 mg/kg siRNA i.v., lipid/DSPC/CHOL/AVANTI 880150P 50/28/18/4, N/P 3.43
[5] = dose 3 mg/kg siRNA i.v., lipid/no neutral lipid/CHOL/AVANTI 880150P 50/0/46/4, N/P 3.43
[6] = lipid/DSPC/CHOL/AVANTI 880150P 50/28/18/4, N/P 3.43
[7] = lipid/no neutral lipid/CHOL/AVANTI 880150P 50/0/46/4, N/P 3.43
[8] = lipid/DSPC/CHOL/AVANTI 880150P 30/30/36/4, N/P 2.3

Row | SMILES | FVII inhib % [1, 4] | FVII inhib % [1, 5] | pKa [2] | Final size (nm) [3, 6] | PDI [3, 6] | Final size (nm) [3, 7] | PDI [3, 7] | FVII inhib % ([1]; dose 1 mg/kg siRNA i.v., lipid/DSPC/CHOL/AVANTI 880150P 50/28/18/4, N/P 3.43) | FVII inhib % ([1]; dose 3 mg/kg siRNA i.v., lipid/DSPC/CHOL/AVANTI 880150P 30/30/36/4, N/P 2.3) | Final size (nm) [3, 8] | PDI [3, 8]
1 | CCCCC/C=C\C/C=C\CCCCCCCCOCC(CN1CCc2ccccc2C1)OCCOCCO[C@H]1CC[C@@]2(C)C(=CC[C@H]3[C@@H]4CC[C@H]([C@H](C)CCCC(C)C)[C@@]4(C)CC[C@@H]32)C1 (stereo partly drawn) [E0001] | 27.6% | 20.1% | 4.84 | 71 nm | 0.101 | 77 nm | 0.16 | – | – | – | –
2 | CCCCC/C=C\C/C=C\CCCCCCCCOCC(CN1CCN(C(=O)OC(C)(C)C)CC1)OCCOCCO[C@H]1CC[C@@]2(C)C(=CC[C@H]3[C@@H]4CC[C@H]([C@H](C)CCCC(C)C)[C@@]4(C)CC[C@@H]32)C1 (stereo partly drawn) [E0002] | 10.4% | – | – | 109 nm | 0.221 | – | – | −0.3% | – | – | –
3 | CCCCC/C=C\C/C=C\CCCCCCCCOCC(CN1CCC(N2CCCCC2)CC1)OCCOCCO[C@H]1CC[C@@]2(C)C(=CCC3C2CC[C@@]2(C)C3CC[C@@H]2[C@H](C)CCCC(C)C)C1 (stereo partly drawn) [E0004] | 23.4% | 41% | 7.48 | 142 nm | 0.113 | 186 nm | 0.201 | – | – | – | –
4 | CCCCC/C=C\C/C=C\CCCCCCCCOCC(CN1CCC(OC)CC1)OCCOCCO[C@H]1CC[C@@]2(C)C(=CCC3C2CC[C@@]2(C)C3CC[C@@H]2[C@H](C)CCCC(C)C)C1 (stereo partly drawn) [E0005] | 12.2% | – | – | 168 nm | 0.069 | 146 nm | 0.07 | – | – | – | –
5 | CCCCC/C=C\C/C=C\CCCCCCCCOCC(CN1C[C@@H](C)O[C@@H](C)C1)OCCOCCO[C@H]1CC[C@@]2(C)C(=CC[C@H]3[C@@H]4CC[C@H]([C@H](C)CCCC(C)C)[C@@]4(C)CC[C@@H]32)C1 (stereo partly drawn) [E0006] | 15.7% | 21.2% | 4.88 | 146 nm | 0.04 | 95 nm | 0.142 | – | – | – | –
6 | CCCCC/C=C\C/C=C\CCCCCCCCOCC(CN1CCC2(CC1)OCCCO2)OCCOCCO[C@H]1CC[C@@]2(C)C(=CCC3C2CC[C@@]2(C)C3CC[C@@H]2[C@H](C)CCCC(C)C)C1 (stereo partly drawn) [E0007] | 72.2% | 76.8% | 5.84 | 92 nm | 0.178 | 138 nm | 0.148 | – | – | – | –
7 | CCCCC/C=C\C/C=C\CCCCCCCCOCC(CN1CC[C@H]2OC(C)(C)O[C@H]2C1)OCCOCCO[C@H]1CC[C@@]2(C)C(=CCC3C2CC[C@@]2(C)C3CC[C@@H]2[C@H](C)CCCC(C)C)C1 (stereo partly drawn) [E0009] | 38.4% | 6.9% | 4.89 | 83 nm | 0.2 | 82 nm | 0.16 | – | – | – | –
8 | CCCCC/C=C\C/C=C\CCCCCCCCOCC(CN1CCCC2CCCCC21)OCCOCCO[C@H]1CC[C@@]2(C)C(=CCC3C2CC[C@@]2(C)C3CC[C@@H]2[C@H](C)CCCC(C)C)C1 (stereo partly drawn) [E0010] | 46.8% | 65.1% | 5.85 | 90 nm | 0.184 | 80 nm | 0.201 | – | – | – | –
9 | CCCCC/C=C\C/C=C\CCCCCCCCOCC(CN1CCNCC1)OCCOCCO[C@H]1CC[C@@]2(C)C(=CC[C@H]3[C@@H]4CC[C@H]([C@H](C)CCCC(C)C)[C@@]4(C)CC[C@@H]32)C1 (stereo partly drawn) [E0012] | – | – | – | – | – | – | – | – | 9.3% | 220 nm | 0.105
